# Measured values: patent US8592464B2, “Nitric oxide furoxan derivative compounds endowed with antitumoral activity” (Humanitas Mirasole S.p.A., priority 2009, dated 2013)
# System: coloncarcinoma26
# Assay: Immunohistochemistry of tumors of tumor-bearing mice after oral AT38
# Assay type: in vivo, BALB/c mice
# Conditions: 10, 30 and 100 mg/kg/day orally for nine days; compared to untreated controls
Structure (SMILES),CD3+ T tumor infiltrating lymphocytes,nitrotyrosine staining
NC(=O)c1c(COC(=O)c2ccccc2O)no[n+]1[O-] [AT38],enhancement,strong reduction

# System: not given
# Assay: not given
# Conditions: not given
row,Structure (SMILES),melting point [°C]
1,NC(=O)c1c(COC(=O)c2ccc(Cl)cc2)no[n+]1[O-],171 to 172
2,N#Cc1ccc(C(=O)OCc2no[n+]([O-])c2C(N)=O)cc1,190 to 191
3,NC(=O)c1c(COC(=O)c2ccccc2)no[n+]1[O-] (hydrate or solvate),163 to 165
4,NC(=O)c1c(COC(=O)c2ccc(N)cc2)no[n+]1[O-] (hydrate or solvate),206 to 208
5,NC(=O)c1c(COC(=O)c2ccccc2O)no[n+]1[O-] (hydrate or solvate),176 to 177
6,NC(=O)c1c(COC(=O)c2cccc(O)c2)no[n+]1[O-] (hydrate or solvate),203 to 204
7,NC(=O)c1c(COC(=O)c2ccc(O)cc2)no[n+]1[O-] (hydrate or solvate),241 to 242
8,NC(=O)c1c(COC(=O)c2ccc(F)cc2)no[n+]1[O-] (hydrate or solvate),163 to 164
9,NC(=O)c1c(COC(=O)c2ccc([N+](=O)[O-])cc2)no[n+]1[O-] (hydrate or solvate),172 to 173
10,Cc1ccc(C(=O)OCc2no[n+]([O-])c2C(N)=O)cc1 (hydrate or solvate),149 to 150
11,COc1ccc(C(=O)OCc2no[n+]([O-])c2C(N)=O)cc1 (hydrate or solvate),175 to 176

# System: cytolytic activity of CD8+ T cells against allogenic (MBL-2) target cells
# Assay: Chromium release assay (in vitro cytotoxicity), B6+C26GM culture: immunosuppressed splenocytes from tumor-bearing mice
# Assay type: cell-based
# Conditions: strong immunosuppressive conditions, 5-h 51Cr-release
row,Structure (SMILES),Range of concentration to rescue cytolytic activity
1,CC(=O)OCc1no[n+]([O-])c1C(N)=O [AT24],INEFFECTIVE
2,CC(=O)OCc1no[n+]([O-])c1C#N [AT25],INEFFECTIVE
3,CC(=O)Oc1ccccc1C(=O)OCc1no[n+]([O-])c1C(N)=O [AT27],25 µM
4,NC(=O)c1c(COC(=O)c2ccccc2O)no[n+]1[O-] [AT38],25 µM
5,NC(=O)c1c(COc2ccc(C(=O)O)c(O)c2)no[n+]1[O-] [AT43],INEFFECTIVE
6,NC(=O)c1c(COC(=O)c2ccccc2)no[n+]1[O-] [AT44],INEFFECTIVE
7,NC(=O)c1c(COC(=O)c2ccc(O)cc2)no[n+]1[O-] [AT45],100 µM
8,NC(=O)c1c(COC(=O)c2cccc(O)c2)no[n+]1[O-] [AT47],50 µM
9,NC(=O)c1c(S(=O)(=O)c2ccccc2)no[n+]1[O-] [AT94],INEFFECTIVE
10,NC(=O)c1c(COC(=O)/C=C/c2ccccc2)no[n+]1[O-] [AT110],100 µM
11,NC(=O)c1c(COC(=O)c2cccnc2)no[n+]1[O-] [AT112],200 µM
12,NC(=O)c1c(COC(=O)/C=C/c2ccccc2O)no[n+]1[O-] [AT113],100 µM

# System: cytolytic activity of CD8+ T cells against allogenic (MBL-2) target cells
# Assay: Chromium release assay (in vitro cytotoxicity), B6+Balb+3% CD11b+ mixed leucocytes culture
# Assay type: cell-based, mice
# Conditions: 5-h 51Cr-release
row,Structure (SMILES),Range of concentration to rescue cytolytic activity
1,CC(=O)OCc1no[n+]([O-])c1C(N)=O [AT24],INEFFECTIVE
2,NC(=O)c1c(COC(=O)c2ccccc2)no[n+]1[O-] [AT44],76 µM
3,NC(=O)c1c(COC(=O)c2ccc(O)cc2)no[n+]1[O-] [AT45],72 µM
